Activity calls are given as the source filed them. The rule behind the calls is not given here. Square brackets hold non-standard residues; d marks the D form. Peptide text beside a SMILES is read from it. Aib = CC(C)(N)C(=O)O
Assays:
[1] = Anodic potential of the compound at pH 9.20 by differential pulse voltammetry; format: physicochemical; settings: pH 9.2
[2] = Anodic potential of the compound at pH 10.20 by differential pulse voltammetry; format: physicochemical; settings: pH 10.2
[3] = Anodic potential of the compound at pH 5.02 by differential pulse voltammetry; format: physicochemical
[4] = Anodic potential of the compound at pH 6.02 by differential pulse voltammetry; format: physicochemical
[5] = Dissociation constant, pKa of the compound at pH 5.02 to 10.20 by cyclic voltammetry; format: physicochemical
[6] = Anodic potential of the compound at pH 6.86 by differential pulse voltammetry; format: physicochemical
[7] = Anodic potential of the compound at pH 8.10 by differential pulse voltammetry; format: physicochemical; settings: pH 8.1
[8] = tested on: Mus musculus; assay: Antinociceptive activity in albino ICR mouse assessed as decrease in number of acetic acid-induced abdominal constriction at 50 to 100 ug/mouse, icv administered 5 mins prior to acetic acid challenge and measured every 5 mins for 30 mins post acetic acid challenge; format: functional, organism-based
[9] = tested on: Mus musculus; assay: Antinociceptive activity in albino ICR mouse assessed as decrease in number of acetic acid-induced abdominal constriction at 25 ug/mouse, icv administered 5 mins prior to acetic acid challenge and measured every 5 mins for 30 mins post acetic acid challenge; format: functional, organism-based
[10] = tested on: Mus musculus; assay: Antinociceptive activity in albino ICR mouse assessed as decrease in number of acetic acid-induced abdominal constriction at 100 ug/mouse, icv administered 5 mins prior to acetic acid challenge and measured every 5 mins for 15 mins post acetic acid challenge; format: functional, organism-based
[11] = tested on: Mus musculus; assay: Antinociceptive activity in albino ICR mouse assessed as decrease in number of acetic acid-induced abdominal constriction at 100 ug/mouse, icv administered 5 mins prior to acetic acid challenge and measured at 5 mins post acetic acid challenge; format: functional, organism-based
[12] = tested on: Mus musculus; assay: Antinociceptive activity in albino ICR mouse assessed as decrease in number of acetic acid-induced abdominal constriction at 25 to 50 ug/mouse, icv administered 5 mins prior to acetic acid challenge and measured every 5 mins for 30 mins post acetic acid challenge; format: functional, organism-based
[13] = tested on: Mus musculus; assay: Antinociceptive activity in albino ICR mouse assessed as decrease in number of acetic acid-induced abdominal constriction at 100 ug/mouse, icv administered 5 mins prior to acetic acid challenge and measured every 5 mins for 10 mins post acetic acid challenge; format: functional, organism-based
[14] = tested on: Mus musculus; assay: Antinociceptive activity in albino ICR mouse assessed as decrease in number of acetic acid-induced abdominal constriction at 25 to 100 ug/mouse, icv administered 5 mins prior to acetic acid challenge and measured every 5 mins for 30 mins post acetic acid challenge; format: functional, organism-based
[15] = tested on: Mus musculus; assay: Antinociceptive activity in albino ICR mouse assessed as decrease in number of acetic acid-induced abdominal constriction at 50 ug/mouse, icv administered 5 mins prior to acetic acid challenge and measured every 5 mins for 30 mins post acetic acid challenge; format: functional, organism-based

Activity [1] [V] | Activity [2] [V] | Activity [3] [V] | Activity [4] [V] | pKa [5] | Activity [6] [V] | Activity [7] [V] | Molecule | also measured
0.055 | 0.057 | 0.211 | 0.15 | 8.24 | 0.125 | 0.071 | CC(C)[C@H](N)C(=O)N[C@H](C(=O)N[C@@H](Cc1ccc(O)cc1)C(=O)N1CCC[C@H]1C(=O)N[C@@H](Cc1c[nH]c2ccccc12)C(=O)N[C@H](C(=O)N[C@@H](CCCCN)C(N)=O)[C@@H](C)O)C(C)C | 
0.082 | 0.079 | 0.225 | 0.175 | 7.83 | 0.117 | 0.075 | CC(C)[C@H](N)C(=O)N[C@H](C(=O)N[C@@H](Cc1ccc(O)cc1)C(=O)N1CCC[C@H]1C(=O)N[C@@H](Cc1c[nH]c2ccccc12)C(=O)N[C@H](C(=O)N[C@@H](CCCN)C(N)=O)[C@@H](C)O)C(C)C | 
0.046 | 0.046 | 0.225 | 0.151 | 7.13 | 0.048 | 0.046 | H-VVYPWTQ-NH2 | Activity [8]: Active; Activity [9]: inactive
0.001 | 0 | 0.23 | 0.13 | 8.12 | 0.07 | 0.009 | CC(C)[C@H](N)C(=O)N[C@H](C(=O)N[C@@H](Cc1ccc(O)cc1)C(=O)N1CCC[C@H]1C(=O)N[C@@H](Cc1c[nH]c2ccccc12)C(=O)N[C@H](C(=O)N[C@@H](CCN)C(N)=O)[C@@H](C)O)C(C)C | 
 |  |  |  |  |  |  | CC(C)[C@H](N)C(=O)N[C@H](C(=O)N[C@@H](Cc1ccc(O)cc1)C(=O)N1CCC[C@H]1C(=O)N[C@@H](Cc1c[nH]c2ccccc12)C(=O)N[C@H](C(=O)N[C@H](CCN)C(N)=O)[C@@H](C)O)C(C)C | Activity [10]: inactive; Activity [11]: Active; Activity [12]: Dose-dependent effect
 |  |  |  |  |  |  | CC[C@H](C)[C@@H](N)C(=O)N[C@H](C(=O)N[C@H](C(=O)N[C@@H](Cc1ccc(O)cc1)C(=O)N1CCC[C@H]1C(=O)N[C@@H](Cc1c[nH]c2ccccc12)C(=O)N[C@H](C(=O)N[C@@H](CCC(N)=O)C(N)=O)[C@@H](C)O)C(C)C)C(C)C | Activity [12]: Dose-dependent effect; Activity [13]: inactive
0.067 | 0.06 | 0.213 | 0.16 | 8.01 | 0.11 | 0.062 | CC[C@H](C)[C@H](N)C(=O)N[C@H](C(=O)N[C@H](C(=O)N[C@@H](Cc1ccc(O)cc1)C(=O)N1CCC[C@H]1C(=O)N[C@@H](Cc1c[nH]c2ccccc12)C(=O)N[C@H](C(=O)N[C@@H](CCC(N)=O)C(N)=O)[C@@H](C)O)C(C)C)C(C)C | 
 |  |  |  |  |  |  | CC(C)[C@H](N)C(=O)N[C@H](C(=O)N[C@@H](Cc1ccc(O)cc1)C(=O)N1CCC[C@H]1C(=O)N[C@@H](Cc1c[nH]c2ccccc12)C(=O)N[C@H](C(=O)N[C@H](CN)C(N)=O)[C@@H](C)O)C(C)C | Activity [14]: Active
0.008 | 0.001 | 0.225 | 0.207 | 9.23 | 0.15 | 0.085 | CC(C)[C@H](N)C(=O)N[C@H](C(=O)N[C@@H](Cc1ccc(O)cc1)C(=O)N1CCC[C@H]1C(=O)N[C@@H](Cc1c[nH]c2ccccc12)C(=O)N[C@H](C(=O)N[C@@H](CN)C(N)=O)[C@@H](C)O)C(C)C | 
 |  |  |  |  |  |  | CC(C)[C@H](N)C(=O)N[C@H](C(=O)N[C@@H](Cc1ccc(O)cc1)C(=O)N1CCC[C@H]1C(=O)N[C@@H](Cc1c[nH]c2ccccc12)C(=O)N[C@H](C(=O)N[C@H](CCCCN)C(N)=O)[C@@H](C)O)C(C)C | Activity [13]: Active; Activity [9]: Active
0.031 | 0.03 | 0.232 | 0.175 | 8.17 | 0.101 | 0.025 | CC(C)[C@H](NC(=O)[C@@H](NC(=O)C(C)(C)N)C(C)C)C(=O)N[C@@H](Cc1ccc(O)cc1)C(=O)N1CCC[C@H]1C(=O)N[C@@H](Cc1c[nH]c2ccccc12)C(=O)N[C@H](C(=O)N[C@@H](CCC(N)=O)C(N)=O)[C@@H](C)O (H-[Aib]VVYPWTQ-NH2) | Activity [14]: inactive
 |  |  |  |  |  |  | CC(C)[C@H](N)C(=O)N[C@H](C(=O)N[C@@H](Cc1ccc(O)cc1)C(=O)N1CCC[C@H]1C(=O)N[C@@H](Cc1c[nH]c2ccccc12)C(=O)N[C@H](C(=O)N[C@H](CCCN)C(N)=O)[C@@H](C)O)C(C)C | Activity [15]: Active; Activity [9]: inactive

— ChEMBL document CHEMBL4229501, “Synthesis, characterization and nociceptive screening of new VV-hemorphin-5 analogues” (Bioorg Med Chem Lett, 2018)
